From PMC9503112, “Synthesis, Molecular Docking, In Vitro and In Vivo Studies of Novel Dimorpholinoquinazoline-Based Potential Inhibitors of PI3K/Akt/mTOR Pathway” (International Journal of Molecular Sciences, 2022)
Several values for one entry are separate records, joined by “and”; a condition that tells them apart may be missing. Identical values can stand only once.

How the values were obtained:
MCF7 = test: Antiproliferative activity, MTT assay; assay type: cell-based; details: Homo sapiens, 72 h, standard deviations within 50%
Description: (§1) Human breast cancer MCF7, MDA-MB-231, SkBr-3 (purchased from the ATCC collection), human keratinocytes HaCaT, murine fibroblasts L929 and macrophages J774 cells (Collection of Shemyakin-Ovchinnikov Institute of Bioorganic Chemistry RAS) were cultured in standard DMEM or RPMI-1640 medium (ThermoScientific, Waltham, MA, USA) supplemented with 10% fetal bovine serum (FBS, Cytiva, Marlborough, MA, USA) at 37 °C, 5 % CO2 and 80–85% humidity (NuAir CO2 incubator). The cell growth was evaluated by MTT (3-[4,5-dimethylthiazol-2-yl]-2,5-diphenyltetrazolium bromide) test. Cells were seeded at a density of 5 × 10^3 cells per well in 96-well flat-bottomed plates (TPP). The compounds were dissolved in DMSO (AppliChem) to 10 mM before the experiments, and then the resulting solutions were diluted by the medium to the required concentrations. Solutions of the tested compounds with different concentrations in 100 μL of the medium were added and the cells were grown for 72 h. MTT (10 μL/well, 5 mg/mL) was added for the final 3 h. The formazan purple crystals were dissolved in DMSO (100 μL per well). The absorbance of solutions was measured at 540 nm with a MultiScan reader (ThermoFisher). Results were analyzed by Excel package (Microsoft). The inhibition of proliferation (inhibitory index) was calculated as [1–(ODexperiment/ODcontrol)], where OD was MTT optical density. IC50 (Table 1) was determined as the concentration giving 50% of inhibition in the comparison with it […].

keratinocytes HaCaT = test: Antiproliferative activity, MTT assay; assay type: cell-based; details: Homo sapiens, 72 h, standard deviations within 50%
Description: as §1

MDA-MB-231 = test: Antiproliferative activity, MTT assay; assay type: cell-based, human
Description: as §1

fibroblasts L929 = test: Antiproliferative activity, MTT assay; assay type: cell-based, murine; details: Mus musculus, 72 h, standard deviations within 50%
Description: as §1

macrophages J774 = test: Antiproliferative activity, MTT assay; assay type: cell-based, murine; details: Mus musculus, 72 h, standard deviations within 50%
Description: as §1

MCF7 cells = test: MCF7 proliferation with 7c in combination with metformin; assay type: cell-based, human; details: 7c combined with metformin; printed as up to 4 nM
Excerpt: Hyperglycemia is one of the most frequent side effects of pan- and isoform-selective PI3K inhibitors. Drug-induced inhibition of PI3K reduces glucose uptake that stimulates insulin secretion. Long-term therapy with PI3K inhibitors can cause insulin resistance. […] We have previously analyzed the antiproliferative potency of metformin (MF) against MCF7 breast cancer cells. Metformin induced a partial restoration of the cancer cell sensitivity to hormonal and target drugs. MF caused 50% suppression of MCF7 cell growth at a concentration of 5.8 mM [54]. Based on this fact, MF at the concentrations that had no significant antiproliferative effect was used in the combination with the lead compound. […]
Human breast cancer MCF7, MDA-MB-231, SkBr-3 (purchased from the ATCC collection), human keratinocytes HaCaT, murine fibroblasts L929 and macrophages J774 cells (Collection of Shemyakin-Ovchinnikov Institute of Bioorganic Chemistry RAS) were cultured in standard DMEM or RPMI-1640 medium (ThermoScientific, Waltham, MA, USA) supplemented with 10% fetal bovine serum (FBS, Cytiva, Marlborough, MA, USA) at 37 °C, 5 % CO2 and 80–85% humidity (NuAir CO2 incubator). The cell growth was evaluated by MTT (3-[4,5-dimethylthiazol-2-yl]-2,5-diphenyltetrazolium bromide) test. […] The absorbance of solutions was measured at 540 nm with a MultiScan reader (ThermoFisher). […]

[1] = tested on: PI3K/Akt/mTOR signaling pathway in MCF7 cells; test: Immunoblotting of PI3K/Akt/mTOR phosphorylation; assay type: cell-based, human
Description: MCF7 cells were seeded onto 100 mm dishes (Corning) and cultivated for 24 h. Compound 7c was added at different concentrations while the reference compound wortmannin (Selleckchem, Houston, TX, USA) was used at 500 nM. The cells were harvested after 72 h of growth with the compounds. To prepare cell extracts, MCF7 cells were twice washed in phosphate buffer and incubated for 10 min on ice in the modified lysis buffer containing 50 mM Tris-HCl, pH 7.5, 0.5% Igepal CA-630, 150 mM NaCl, 1 mM EDTA, 1 mM DTT, 1 mM PMSF, 0.1 mM sodium orthovanadate and aprotinin, leupeptin, pepstatin (1 µg/mL each). The protein content was determined by the Bradford method. Cell lysates were separated in 10% SDS-PAGE under reducing conditions, transferred to a nitrocellulose membrane (GE HealthCare, Chicago, IL, USA), and processed according to a standard protocol. To prevent nonspecific absorption, the membranes were treated with 5% nonfat milk solution in TBS buffer (20 mM Tris, 500 mM NaCl, pH 7.5) with 0.1% Tween-20 and then incubated with primary antibodies (Cell Signaling Technology, Danvers, MA, USA) overnight at 4 °C. […] Signals were detected using the ECL reagent using the ImageQuant LAS4000 system (GE HealthCare, Chicago, IL, USA).
The signals of phospho-proteins to total ones were calculated using the ImageJ program from inverted images of the bands.

SkBr-3 cells = test: Cell cycle analysis (PI-stained DNA, flow cytometry); assay type: cell-based, human
Description: The cell cycle was analyzed using PI-stained DNA. Cells from the compounds 7 treated cultures were collected at 24, 48, and 72 h, trypsinized, washed in ice-cold PBS, fixed by the addition of 70% ethanol and left for 2 h at −20 °C. Thereafter, the cells were washed twice in PBS, stained with 50 μg/mL of propidium iodide (Sigma, Merck KGaA, Darmstadt, Germany) in PBS, treated with 10 µg/mL of RNAse and analyzed by flow cytometry using FACScan device (BD, USA). A total of 2000 events were collected. The results were analyzed using FlowJo 10 software (BD, Franklin Lakes, NJ, USA).

Solubility = assay type: physicochemical

For `O=C(NCCc1cccnc1)Nc1ccc(-c2ccc3c(N4CCOCC4)nc(N4CCOCC4)nc3c2)cc1` [Compound 7c, 1-(4-(2,4-Dimorpholinoquinazolin-7-yl)phenyl)-3-(2-(pyridin-3-yl)ethyl)urea], the IC50 (MCF7) was 200 nM, the IC50 (keratinocytes HaCaT) was 6000 nM and the IC50 (MDA-MB-231; Homo sapiens, MDA-MB-231, MTT, 72 h, standard deviations within 50%) was 1000 nM. The “Toxicity for MDA-MB-231 (wild type PI3K) lower than for MCF7 (mutant PI3K)” value (MDA-MB-231; MDA-MB-231 versus MCF7) was 5 times, the IC50 (fibroblasts L929) was 3000 nM and the IC50 (macrophages J774) was 400 nM. For the same compound, the “Antiproliferative activity in combination with metformin” value (MCF7 cells) was “up to 4 nM”, the “Concentration inhibiting phosphorylation of Akt, mTOR, S6K (PI3K/Akt/mTOR proteins)” value [1] was 125 to 250 nM and 250 to 500 nM and the “Concentration above which all cells died” value (SkBr-3 cells) was “higher than 10 μM”. The “Concentration below which no changes in the cell cycle were found” value (SkBr-3 cells) was “below 1 μM” and the Solubility (Solubility) was “soluble only in DMSO”.
